Tests used:
[1] = Mouse pharmacokinetics (plasma, LC-MS/MS); assay type: in vivo, C57BL/6J mice; conditions: male, C57BL/6J, ip, single intraperitoneal injection of 40 mg/kg
Procedure: We employed liquid chromatography and tandem mass spectrometry (LC-MS/MS) to quantify the plasma concentration of 32-134D over 24 hours following a single intraperitoneal injection of 40 mg/kg (Figure 9). The maximum plasma concentration (Cmax) of 20 μM occurred at 4 hours with a biexponential decline. […] Further studies are required to determine whether steady-state levels are achieved with daily administration.
Figure 9 Concentration-time profiles of 32-134D in mice (n = 3 per time point) treated with a single dose of 32-134D. Plasma was obtained over 24 hours, with 32-134D concentrations determined by LC-MS/MS. […] Data points and error bars represent mean and SD of 3 replicates, respectively.
Male C57BL/6J mice were administered 32-134D at 40 mg/kg as a single intraperitoneal injection. Mice (n = 3 per time point) were euthanized at 0.5, 1, 2, 4, 8, 16, and 24 hours after injection. Compound 32-134D was quantified in plasma by LC-MS/MS (see Supplemental Methods). Pharmacokinetic parameters were calculated from mean concentration-time data using noncompartmental methods in Phoenix WinNonlin version 8.3 (Certara). The Cmax and time to Cmax (tmax) were the observed values. The AUClast was calculated using the log-linear trapezoidal method. AUC was extrapolated to infinity (AUCINF) by dividing the last quantifiable concentration by the terminal disposition rate constant (λz). The λz was determined from at least 3 points on the slope of the terminal phase of the concentration-time profile. The t1/2 was determined by dividing 0.693 by λz. Cl/F was calculated by dividing the dose administered by AUCINF. V/F was calculated by dividing Cl/F by λz. If the percentage AUC extrapolated was greater than 20% or the r^2 of λz was less than 0.85, the AUCINF, Cl/F, t1/2, and V/F were not reported.

[2] = tested on: hypoxia-induced genes in Hep3B cells; assay: RNA sequencing of Hep3B cells; assay type: cell-based, human; conditions: 5 μM, 1% O2, 24 hours
Procedure: RNA sequencing (RNA-seq) was performed on 3 biological replicates of Hep3B cells exposed for 24 hours to vehicle at 20% O2, vehicle at 1% O2, or 5 μM 32-134D at 1% O2. […] Overall, 32-134D inhibited the expression of 4,689 genes, of which the 3,326 hypoxia-induced genes represented 71% of the total.
RNA was extracted using TRIzol Reagent. Quantitative real-time PCR was conducted using SYBR Green PCR Master Mix and reactions were run using a Bio-Rad thermal cycler. Primer sequences and reagent sources are listed in Supplemental Table 5. The mRNA expression of target genes was normalized to the expression of 18S rRNA and the fold change (FC) was calculated based on the threshold cycle (Ct) as FC = 2^–Δ(ΔCt), where ΔCt = Cttarget gene – Ct18S rRNA and Δ(ΔCt) = ΔCttreatment – ΔCtcontrol. For RNA-seq, total RNA was isolated and treated with DNase (Qiagen). […] An automated data analysis pipeline run in the Genialis platform consisted of the following: Sequence quality checks were performed on raw and trimmed reads with FastQC. Bbduk was used to trim adapters and filter out poor quality reads. Trimmed reads were then mapped to the STAR index (ENSEMBL 100) reference genome using the STAR ([93]) aligner. Gene expression levels were quantified with featureCounts ([94]), and differential gene expression analyses were performed with DESeq2 ([95]). […]

CL/F ([1]; read-out: apparent clearance (Cl/F)): 14.5 mL/min/kg | Vd/F ([1]; read-out: apparent volume of distribution (V/F)): 6.1 L/kg | AUC(0-inf) ([1]; read-out: area under the curve extrapolated to infinity (AUCINF)): 96.7 µM·h | Cmax ([1]; read-out: maximum plasma concentration (Cmax)): 20 µM | half-life ([1]; read-out: terminal half-life (t1/2) (converted)): 4.1 h
Compound: Brc1ccc2c(-c3csc(-c4c[nH]c5c(Br)cccc45)n3)c[nH]c2c1 [Compound 32-134D]
total number of genes whose expression was inhibited [2]: 4,689 genes | number of hypoxia-induced genes whose expression was inhibited ([2]; of 3,849 hypoxia-induced mRNAs): 3,326 genes

Source: article PMC9057582, “HIF inhibitor 32-134D eradicates murine hepatocellular carcinoma in combination with anti-PD1 therapy” (The Journal of Clinical Investigation, 2022)
